The conditions of data set [1]: in water; cited from earlier work.
Data set [2] relates to E. coli cells. The data set is described as follows: Lysis of suspended bacterial cells by lysis buffers with 0.1 to 1% SDS. Type of data set: cell-based. The conditions noted are these: lysis buffer with 1% OT-100, 0.2M NaOH. As to the method: 0.25 grams of pelleted E. coli cells (the cells contained an 8.165 kB plasmid called VR1412) were suspended in the suspension buffer from a Concert Plasmid DNA Purification Kit (Life Technologies, Inc., Bethesda, Md.). In place of the lysis buffer provided in the Concert Plasmid DNA Purification Kit (i.e., 1% SDS in 200 mM NaOH), a series of ten different lysis buffers were evaluated. Each lysis buffer included 1% OT-100 (a hydrophobic surfactant), 0.2M NaOH and from 0.1 to 1% SDS. The lysis buffers were used to lyse the suspended bacterial cells, and the lysed suspension was then neutralized with the neutralization buffer provided in the Concert Plasmid DNA Purification Kit. The resulting plasmid DNA preparation was precipitated by the addition of isopropanol (IPA) followed by centrifugation.
The best result was obtained with 1% OT-100 and 0.4% SDS, that combined a relatively low endotoxin (LAL) level and a high plasmid concentration.

For data set [3] the following is noted: bracketed value; cited from earlier work.

`CCCCCCCCCCCCCOC(=O)CC(C(=O)OCCCCCCCCCCCCC)S(=O)(=O)O.[Na]` (stereo not drawn) [TR-70, sodium bistridecyl sulfosuccinate]: the “Solubility” value in data set [1] is 0.15%.
Regarding `CCCCCCCCCCCCOS(=O)(=O)[O-].[Na+]` [SDS, Sodium dodecyl sulfate], the “minimum concentration of SDS required to achieve most effective bacterial lysis” value in data set [2] stood at 0.4%.
In the case of Triton ® X-100, in data set [3], the “Dynamic Surface Tension [6 bubbles/sec]” value was “— (42.2) dynes/cm”.

The values are drawn from patent US20020009799A1, “Isolation and purification of nucleic acids” (priority 1999, published 2002).
